Entries after “also recorded” stand apart in the source; their conditions may differ.
Key:
[1] = test system: PPT CGNPs expressing vismodegib-resistant SMO mutants; assay: PPT CGNP proliferation, methyl-[3H]-thymidine incorporation; format: cell-based, mice; settings: 1 μM JQ1 (FIG. 16B)
Description: (§1) It has previously been noted that Hh-driven tumor cells rapidly lose their Hh pathway dependence during culturing (Sasai et al., 2006). However, CGNPs proliferate in vivo in a Hh dependent manner and maintain their Hh pathway dependence in culture for a finite period (Wechsler-Reya and Scott, 1999). CGNPs isolated from Ptch1loxp/loxp Tp53loxp/loxp Rosa26LSL-tdTomato (PPT) pups were infected with lentiviral constructs expressing a SMO variant together with an enhanced green fluorescent protein (eGFP)-Cre fusion protein (FIG. 12C). The Cre recombinase induces loss of Ptch1 and thus ensures that only transduced CGNPs can proliferate in the absence of exogenous Sonic hedgehog ligand (SHH; FIG. 11D). […] Proliferation by methyl-[3H]-thymidine incorporation was monitored, while Cre-dependent tandem dimer (td) Tomato expression enabled visualization and quantification of infected cells.
(§2) SMO mutants were generated in pRK5-SMO vectors as described (Dijkgraaf et al., 2011; Yauch et al., 2009) and were either utilized in Gli-luciferase reporter assays as described (Dijkgraaf et al., 2011) or cloned into lentiviral vectors for transduction of primary CGNP cultures. Proliferation was assayed using methyl-[3H]-thymidine incorporation (Kool et al., 2014).
(§3) Cerebella from post-natal day 5-7 Ptch1^loxp/loxp Rosa26^LSL.tdTomato Tp53^loxp/loxp mice were dissociated in 0.05% Trypsin for 10 min at 37° C. Cells were collected by centrifugation at 514×g for 10 min at 4° C., resuspended in CGNP media (Neurobasal medium (Life Technologies) containing 1×B27 (without vitamin A; Life Technologies), 0.45% glucose (Sigma Aldrich), 25 mM KCl, 0.4% bovine serum albumin (Sigma Aldrich), 2 mM glutamine, 100 U/ml Penicillin (Life Technologies), 100 μg/ml Streptomycin (Life Technologies), 200 ng/ml octylated recombinant SHH) and filtered through a 0.45 μm filter (Falcon). Cells were plated in poly-D-lysine coated 6-well plates (Corning) at 5×10E5 cells/well and infected with lentivirus at a multiplicity of infection (MOI) of 1. After 24 hr, cells were harvested by trypsinization, collected in CGNP media and replated for downstream applications.
(§4) To examine the effects of HPIs on proliferation, virally transduced CGNPs were plated in poly-D-lysine-coated 96-well plates (Corning) at 25,000 cells/well in CGNP media without SHH. […] After 24 hr, cells were pulsed with 1 μCi/ml methyl-[^3H]-thymidine (Amersham/GE Healthcare) and cultured for an additional 16-24 hr. Cells were harvested onto 96-well filter plates (Perkin Elmer) using a Filtermate Cell Harvester (Perkin Elmer), and incorporated radioactivity was quantified by liquid scintillation spectrophotometry on a TopCount NXT (PerkinElmer).

SMO E518A = SMO E518A (Homo sapiens, UniProt Q99835, E518A); settings: cited from earlier work
SMO E518K = SMO E518K (Homo sapiens, UniProt Q99835, E518K); settings: cited from earlier work
advanced BCC = settings: majority of patients; complete and partial responses (Sekulic et al., 2012); cited from earlier work
SMO-A459V = target: T1, SMO-A459V (Homo sapiens, UniProt Q99835, A459V); assay: Gli-luciferase based Hh reporter assay; format: cell-based; settings: C3H10T½ cells
T1 construct: expressed in transfected cells; host or cells: C3H10T1/2 cells
Method: as §2
C3H10T½ cells (ATCC) were seeded into six-well plates at 1.75×10E5 cells/well in DMEM High Glucose with 4 mM glutamine, 10 mM Hepes pH 7.2 and 10% FBS. After 16 h cells were transfected with 400 ng of expression construct, 400 ng of 9×-Gli-BS and 200 ng of pRL-TK per well using GeneJuice Transfection Reagent (Novagen). For the PTCH1 inhibition experiments, cells were transfected with 200 ng SMO expression construct and an additional 200 ng of DNA containing varying ratios of PTCH1 to empty vector. Six hours later, cells from one well were trypsinized and redistributed over four wells of a 12-well plate. After 16 hours the FBS content of the culture medium was reduced to 0.5% to induce formation of primary cilia, and small molecule Hh inhibitors were added at indicated concentrations. Firefly luciferase activity was determined 24 hours later with the Dual-Glo Luciferase Assay System (Promega) and read using a Wallac EnVision plate reader (Perkin Elmer). […]

SMO L515A = SMO L515A (Homo sapiens, UniProt Q99835, L515A); settings: 1 mM vismodegib; cited from earlier work
[2] = test system: SMO-A459V expressing CGNPs; assay: PPT CGNP proliferation, methyl-[3H]-thymidine incorporation; format: cell-based, mice; settings: SMO-A459V (FIG. 15D)
Description: as §1, §2, §3, §4

[3] = test system: SMOW535L expressing CGNPs; assay: as above; format: cell-based, mice; settings: SMOW535L (FIG. 15D)
Description: as §1, §2, §3, §4

[4] = test system: PPT CGNPs infected with SMO DBP mutants; assay: as above; format: cell-based, mice; settings: all DBP mutations; >1 μM vismodegib (FIG. 12D)
Description: as §1, §2, §3, §4

T1 sequence (Q99835 28-787 A459V): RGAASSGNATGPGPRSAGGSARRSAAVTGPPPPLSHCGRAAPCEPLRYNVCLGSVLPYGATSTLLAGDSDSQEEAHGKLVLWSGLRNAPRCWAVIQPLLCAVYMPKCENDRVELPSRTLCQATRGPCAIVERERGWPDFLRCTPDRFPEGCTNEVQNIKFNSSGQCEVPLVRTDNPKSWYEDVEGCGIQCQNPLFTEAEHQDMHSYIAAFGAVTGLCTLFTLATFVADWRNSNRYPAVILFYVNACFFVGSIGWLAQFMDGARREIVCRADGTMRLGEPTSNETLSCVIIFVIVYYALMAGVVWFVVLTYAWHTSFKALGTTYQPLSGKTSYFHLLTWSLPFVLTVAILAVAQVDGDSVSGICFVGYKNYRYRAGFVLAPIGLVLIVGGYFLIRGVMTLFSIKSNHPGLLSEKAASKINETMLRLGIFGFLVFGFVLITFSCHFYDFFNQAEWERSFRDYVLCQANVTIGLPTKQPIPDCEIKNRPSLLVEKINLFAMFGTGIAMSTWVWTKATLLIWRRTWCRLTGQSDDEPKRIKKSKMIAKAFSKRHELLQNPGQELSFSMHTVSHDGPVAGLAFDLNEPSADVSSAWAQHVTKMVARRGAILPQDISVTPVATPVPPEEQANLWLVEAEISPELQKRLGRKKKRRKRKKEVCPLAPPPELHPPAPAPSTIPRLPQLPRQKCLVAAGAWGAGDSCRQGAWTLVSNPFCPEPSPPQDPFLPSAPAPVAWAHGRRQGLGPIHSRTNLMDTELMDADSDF
Chain of SMO L515A (Q99835 28-787 L515A): as the sequence (Q99835 28-787 A459V) above, with V432A, L488A counted along it
Chain of SMO E518A (Q99835 28-787 E518A): as the sequence (Q99835 28-787 A459V) above, with V432A, E491A counted along it
Chain of SMO E518K (Q99835 28-787 E518K): as the sequence (Q99835 28-787 A459V) above, with V432A, E491K counted along it

In the case of `Cc1sc2c(c1C)C(c1ccc(Cl)cc1)=N[C@@H](CC(=O)OC(C)(C)C)c1nnc(C)n1-2` [JQ1], the “proliferation in the presence of JQ1” value [1] is reported as “reduced proliferation”.
For `CS(=O)(=O)c1ccc(C(=O)Nc2ccc(Cl)c(-c3ccccn3)c2)c(Cl)c1` [vismodegib], the sensitivity to vismodegib (SMO E518A) is listed as “reduced sensitivity to”, the sensitivity to vismodegib (SMO E518K) is listed as “reduced sensitivity to” and the “clinical outcome of BCC patients treated with vismodegib” value (advanced BCC) is listed as “clinical benefit”. The “sensitivity to inhibition by vismodegib” value (SMO-A459V) was “decreased sensitivity; also recorded: reduced sensitivity”, the “sensitivity to inhibition by vismodegib” value (SMO L515A) was “activating, sensitive” and the “proliferation at high concentrations of vismodegib” value [2] was “continued to proliferate”. For the same compound, the “proliferation at high concentrations of vismodegib” value [3] was “continued to proliferate” and the “proliferation at high levels of vismodegib” value [4] was “continuing to proliferate”.

— patent publication US20170044232A1, “MUTANT SMOOTHENED AND METHODS OF USING THE SAME” (GENENTECH, INC., priority 2014, published 2017)
